We go through four compounds from patent US10295530B2, “Functional assay for cancer recurrence and malignant potential” (THE BRIGHAM AND WOMEN'S HOSPITAL, INC., priority 2012, dated 2019).

For one data set, the system named is HMLER-HR responder cells. Description: HMLER-HR responder cells in depleted medium (D.M.) plus EGF and/or insulin, 4 days: flow cytometry and qPCR. In kind it is cell-based, human. The note with it: for CD44 expression / CD44/CD24 expression patterns (flow cytometry) / Oct4 expression (qPCR) / Zeb1 expression (qPCR) / c-Myc expression (qPCR): added to cells kept in D.M. for 4 days, relative to C.M. The source says:
FIG. 23D. Flow cytometric density plots representing CD44/CD24 profiles of responding tumor cells after 4 days in depleted medium, D.M. (medium devoid of EGF and insulin), or D.M.+indicated supplements. Graph represents average responding tumor cell CD441CD24 profiles under indicated conditions relative to that of C.M (samples run in triplicate).
FIG. 23E. Expression levels of indicated malignancy profile genes in responder tumor cells after 4 days in indicated culture conditions relative to those maintained in C.M. Data represent average of three independent experiments, where each sample was run in triplicate.
FIG. 26E. Expression levels of c-myc in HMLER-HR responding tumor cells after 4 days in response to indicated doses of EGF. Data are represented relative to cells that had been maintained in depleted medium (D.M.; medium devoid of EGF and insulin). Data are expressed as mean±SEM; samples tested in triplicate.
HMLER-HR cells were maintained in DMEM-F12 (1:1) medium, supplemented with 5% calf serum, 10 ng/ml human recombinant EGF (Sigma E9644), 10 μg/ml insulin (Sigma 19278), 1 μg/ml hydrocortisone (Sigma 110888) and 1% penicillin-streptomycin. BPLER cells were maintained in WIT Medium (STEMGENT), and MCF7-Ras cells in DMEM media (Thermo Scientific) supplemented with 10% heat inactivated FBS (GIBCO), and 1% penicillin-streptomycin. BT549 cells were maintained in RPMI medium supplemented with 10% FBS.
RNA was extracted from cells or snap-frozen tissues using Trizol reagent following manufacturer's instructions (INVITROGEN). RNA was retrotranscribed with ProtoScript AMV First Strand cDNA Synthesis Kit (New England BioLabs). PCR amplification was performed on a ABI Prism 7900 sequence detector using SYBR-Green (Applied Biosystems). Analysis was done using delta-delta Ct method, normalizing first to GAPDH.
Whether EGFR and IGF1R signaling were necessary and/or sufficient for modulating responding tumor malignancy remained to be investigated. To do so, the effects of either depleting EGF and/or insulin from HMLER-HR responder cells that had been cultured in complete medium (C.M.) or adding EGF and/or insulin to cells that had been cultured in depleted medium (D.M., medium depleted of both EGF and insulin) were examined. For these studies, cells were treated under various conditions for 4 days, then assessed differentiation status by flow cytometry, expression of malignancy factors (e.g. Oct-4, Zeb1, c-myc) by qPCR, and tumor-forming capacity by soft agar colony formation.

In data set [1] the test system is responding tumors (HMLER-HR) opposite instigating LBC. Nature of the data set: Aspirin treatment in LBC-mediated systemic instigation: responding tumors. Format: in vivo, mice. The note with it: aspirin 100 mg/kg i.p. once per week. The procedure:
(§1) FIG. 35A. Experimental scheme to test effects of aspirin on LBC-mediated systemic instigation. All mice were injected with responders and LBC instigating tumors and treated with either 100 mg/kg aspirin or vehicle control; n=10 (5 mice per cohort for 2 independent experiments).
All experiments were performed in accordance with regulations of the Children's Hospital Boston Institutional Animal Care and Use Committee (protocol 09-12-1566). Unless otherwise indicated, tumor cells were suspended in 20% […] (BD Biosciences) and injected subcutaneously into nonirradiated mice. Tumors were measured on the flanks of live mice using calipers; volume was calculated as 0.5*length*(width^2).
(§2) 450 mg Aspirin (Sigma, A2093-100G) was dissolved in 11 ml DMSO to make a 41 mg/ml concentrated stock solution. 30 min before injection, 1.6 ml of stock solution was diluted in 11.6 ml of PBS to make a 5 mg/ml injection solution.
(§3) Vehicle control was made with 1.6 ml DMSO diluted in 11.6 ml PBS. Mice were injected i.p. with aspirin at 100 mg/kg, once per week. A similar volume:weight ratio of vehicle was administered to control animals.
In order to explore therapeutic potential and identify whether platelets were necessary for delivering the pro-tumorigenic instigating stimulus in the LBC macroenvironment, we treated mice with aspirin, which inhibits platelet activity (28). Mice were injected with LBC instigators that were permitted to grow for 4 weeks prior to initiation of weekly treatments of either aspirin or vehicle control; responders were then injected into these mice two days following the first aspirin treatment (FIG. 35A). While responding tumors formed in 90% of the mice treated with vehicle control, only 20% of the mice treated with aspirin developed responding tumors (FIG. 35B).

In data set [2] the test system is instigating LBC tumor / host platelets and bone marrow. Nature of the data set: Aspirin treatment in LBC-mediated systemic instigation: instigating LBC tumor, platelet counts, bone marrow VEGFR2+ cells. In kind it is in vivo, mice. The conditions noted are these: aspirin 100 mg/kg i.p. once per week vs vehicle. The procedure:
as §1
FIG. 35C. Numbers of VEGFR2+ cells in the bone marrow of experimental mice relative to those of cancer-free mice.
as §2, §3
In order to explore therapeutic potential and identify whether platelets were necessary for delivering the pro-tumorigenic instigating stimulus in the LBC macroenvironment, we treated mice with aspirin, which inhibits platelet activity (28). Mice were injected with LBC instigators that were permitted to grow for 4 weeks prior to initiation of weekly treatments of either aspirin or vehicle control; responders were then injected into these mice two days following the first aspirin treatment (FIG. 35A). […]

For a further data set, the system named is GFP+ responder cells. Description: Co-culture of GFP+ responder cells with BMCs from aspirin or vehicle treated mice, CD24 by flow cytometry. The note with it: BMCs from aspirin treated LBC-bearing mice; same with vehicle. Format: cell-based, human. On the procedure:
FIG. 35D. Flow cytometric analysis of CD24 expression on GFP+ responder cells co-cultured with indicated BMCs.
BMCs were harvested and tested for functional activity as previously described (McAllister et al., 2008). In vitro instigation assays were conducted by co-culturing 1×10^4 GFP-positive responder tumor cells with 1×10^6 BMCs harvested from mice bearing […], TNBC or LBC Instigators. Co-cultured cells were maintained for 4 days in BMDC medium (DMEM, 5% FBS, 5% horse serum, 10^−6 M hydrocortisone), adding fresh medium on day 2.
In order to understand whether BMCs from LBC tumor bearing mice directly mediated tumor cell surface enrichment of CD24, adherent GFP-positive (GFP+) responding tumor cells were cultured with BMCs prepared from various cohorts of mice and analyzed tumor cell expression of CD24 after 4 days by flow cytometry.

For data set [3] the following is noted: patients treated with erlotinib (Numico et al., 2011); cited from earlier work.

In the case of “EGF: human recombinant EGF (Sigma E9644)”, in the data set with HMLER-HR responder cells (HMLER-HR, 4 days, relative to D.M.), the “c-myc upregulation in response to doses of EGF” value was “dose-dependent”. Also, in the data set with HMLER-HR responder cells, the “CD44 expression / CD44/CD24 expression patterns (flow cytometry)” value is recorded as “sufficient to restore”, the “Oct4 expression (qPCR)” value is reported as “unaffected”, the “Zeb1 expression (qPCR)” value was “restored” and the “c-Myc expression (qPCR)” value was “restored”.

In the case of “insulin: insulin (Sigma 19278), medium supplement”, in the data set with HMLER-HR responder cells, the “CD44 expression / CD44/CD24 expression patterns (flow cytometry)” value was “not sufficient to restore”, the “Oct4 expression (qPCR)” value was “restored”, the “Zeb1 expression (qPCR)” value is listed as “remained significantly lower than the controls” and the “c-Myc expression (qPCR)” value is “remained significantly lower than the controls”.

Consider `CC(=O)Oc1ccccc1C(=O)O` [aspirin, Aspirin], for which, in data set [1] (LBC instigating environment), the “incorporation of VEGFR2-positive cells into responding tumor sites” value is reported as “completely inhibited” and the “p-STAT3 in responding tumor site tissues” value is reported as “negative”. In data set [1] (LBC instigators, vehicle control 90%), the “mice that developed responding tumors (incidence)” value was found to be 20%. The “instigating LBC tumor growth” value in data set [2] was “did not significantly affect”. The “increase in tumor cell CD24 expression above control BMCs from tumor-free mice” value in the data set on GFP+ responder cells was ~90%.

On to `C#Cc1cccc(Nc2ncnc3cc(OCCOC)c(OCCOC)cc23)c1` [erlotinib], for which the “adverse effect reported for patients” value in data set [3] was “skin rash”.
